This experiment deals with T1, purified human HDAC6 (Homo sapiens, UniProt Q9UBN7).
T1 construct: purchased BPS Bioscience 5006
T1 sequence (Q9UBN7 1-1215): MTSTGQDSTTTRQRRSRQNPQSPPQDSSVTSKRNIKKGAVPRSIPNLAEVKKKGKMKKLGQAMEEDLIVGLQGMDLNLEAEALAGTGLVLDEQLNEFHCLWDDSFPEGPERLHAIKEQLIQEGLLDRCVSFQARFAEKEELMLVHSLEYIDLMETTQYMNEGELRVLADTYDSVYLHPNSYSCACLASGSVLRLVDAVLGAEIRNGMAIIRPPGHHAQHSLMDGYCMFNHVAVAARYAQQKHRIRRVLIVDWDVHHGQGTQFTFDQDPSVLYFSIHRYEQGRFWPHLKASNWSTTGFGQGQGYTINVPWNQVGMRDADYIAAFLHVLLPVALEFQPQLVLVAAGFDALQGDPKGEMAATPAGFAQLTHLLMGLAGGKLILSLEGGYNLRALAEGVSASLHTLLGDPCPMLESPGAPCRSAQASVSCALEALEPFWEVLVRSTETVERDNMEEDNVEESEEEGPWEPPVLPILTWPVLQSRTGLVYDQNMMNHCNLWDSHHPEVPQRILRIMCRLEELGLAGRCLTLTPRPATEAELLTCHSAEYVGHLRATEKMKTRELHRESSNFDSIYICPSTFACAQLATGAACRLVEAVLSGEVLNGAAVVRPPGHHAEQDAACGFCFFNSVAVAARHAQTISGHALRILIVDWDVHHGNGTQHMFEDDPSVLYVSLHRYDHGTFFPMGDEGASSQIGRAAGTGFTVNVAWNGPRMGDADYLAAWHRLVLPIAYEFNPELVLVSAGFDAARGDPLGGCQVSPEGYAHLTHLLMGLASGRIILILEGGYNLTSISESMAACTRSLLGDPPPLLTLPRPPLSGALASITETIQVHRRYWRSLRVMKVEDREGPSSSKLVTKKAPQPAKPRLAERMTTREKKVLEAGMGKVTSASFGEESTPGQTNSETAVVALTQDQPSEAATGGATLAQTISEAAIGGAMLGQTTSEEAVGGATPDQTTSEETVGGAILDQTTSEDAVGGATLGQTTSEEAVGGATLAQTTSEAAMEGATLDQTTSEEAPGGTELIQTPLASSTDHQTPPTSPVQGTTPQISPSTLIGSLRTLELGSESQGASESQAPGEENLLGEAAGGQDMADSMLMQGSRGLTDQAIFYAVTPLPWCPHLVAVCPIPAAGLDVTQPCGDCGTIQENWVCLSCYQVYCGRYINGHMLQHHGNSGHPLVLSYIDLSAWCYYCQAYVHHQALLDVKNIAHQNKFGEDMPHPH
The experiment can be described thus: HDAC6 Enzyme Assay. Format: biochemical. As for the experimental part: To measure the inhibition of HDAC6 activity, purified human HDAC6 (BPS Bioscience; Cat. No. 5006) is incubated with substrate Ac-Arg-Gly-Lys(Ac)-AMC peptide (Bachem Biosciences; Cat. No. I-1925) for 1 hour at 30° C. in the presence of test compounds or vehicle DMSO control. The reaction is stopped with the HDAC inhibitor trichostatin A (Sigma; Cat. No. T8552) and the amount of Arg-Gly-Lys-AMC generated is quantitated by digestion with trypsin (Sigma; Cat. No. T1426) and subsequent measurement of the amount of AMC released using a fluorescent plate reader (Pherastar; BMG Technologies) set at Ex 340 nm and Em 460 nm. Concentration response curves are generated by calculating the fluorescence increase in test compound-treated samples relative to DMSO-treated controls, and enzyme inhibition (IC50) values are determined from those curves.
Usually IC50 stands for the point on the concentration scale where inhibition reaches its midpoint. The low end stands for inhibition by little substance, the high end for a need for much substance. For the molecule `Cc1cc(C)n(CC(=O)N2CCc3cc(C(=O)NO)ccc3C2)n1` [Compound 31, 2-[(3,5-dimethyl-1H-pyrazol-1-yl)acetyl]-N-hydroxy-1,2,3,4-tetrahydroisoquinoline-6-carboxamide], the IC50 was 100 to 500 nM.
The same measure for `O=C(NO)c1ccc2c(c1)CCN(C(=O)C1CCCC1)C2` [Compound 32, 2-(cyclopentylcarbonyl)-N-hydroxy-1,2,3,4-tetrahydroisoquinoline-6-carboxamide]: less than 50 nM; for `O=C(NO)c1ccc2c(c1)CCN(C(=O)C13CC4CC(CC(C4)C1)C3)C2` [Compound 33, 2-[1-adamantylcarbonyl]-N-hydroxy-1,2,3,4-tetrahydroisoquinoline-6-carboxamide]: less than 50 nM; for `COc1cccc(CC(=O)N2CCc3cc(C(=O)NO)ccc3C2)c1` [Compound 34, N-hydroxy-2-[(3-methoxyphenyl)acetyl]-1,2,3,4-tetrahydroisoquinoline-6-carboxamide]: 50 to 100 nM.
The same measure for `CC(C)c1ccc(CC(=O)N2CCc3cc(C(=O)NO)ccc3C2)cc1` [Compound 35, N-hydroxy-2-[(4-isopropylphenyl)acetyl]-1,2,3,4-tetrahydroisoquinoline-6-carboxamide]: 100 to 500 nM.
The same measure for `CC(=O)N1CCC(C(=O)N2CCc3cc(C(=O)NO)ccc3C2)CC1` [Compound 36, 2-[(1-acetylpiperidin-4-yl)carbonyl]-N-hydroxy-1,2,3,4-tetrahydroisoquinoline-6-carboxamide]: 100 to 500 nM.
In turn, `Cc1cc(C(F)(F)F)nn1CC(=O)N1CCc2cc(C(=O)NO)ccc2C1` [Compound 37, N-hydroxy-2-{[5-methyl-3-(trifluoromethyl)-1H-pyrazol-1-yl]acetyl}-1,2,3,4-tetrahydroisoquinoline-6-carboxamide] had an IC50 of 100 to 500 nM.
Turning to `CCCCS(=O)(=O)N1CCc2cc(C(=O)NO)ccc2C1` [Compound 38, 2-(butylsulfonyl)-N-hydroxy-1,2,3,4-tetrahydroisoquinoline-6-carboxamide], the IC50 lay in the range of 50 to 100 nM.
In the case of `O=C(NO)c1ccc2c(c1)CCN(S(=O)(=O)Cc1ccccc1)C2` [Compound 39, 2-(benzylsulfonyl)-N-hydroxy-1,2,3,4-tetrahydroisoquinoline-6-carboxamide], the IC50 is 50 to 100 nM.
With `CCCS(=O)(=O)N1CCc2cc(C(=O)NO)ccc2C1` [Compound 40, N-hydroxy-2-(propylsulfonyl)-1,2,3,4-tetrahydroisoquinoline-6-carboxamide], the 50% inhibitory concentration (IC50) was in the range of 100 to 500 nM.
The same measure for `CC(C)c1ccc(S(=O)(=O)N2CCc3cc(C(=O)NO)ccc3C2)cc1` [Compound 42, N-hydroxy-2-[(4-isopropylphenyl)sulfonyl]-1,2,3,4-tetrahydroisoquinoline-6-carboxamide]: 100 to 500 nM.
The same measure for `COc1ccc(-c2ccc(S(=O)(=O)N3CCc4cc(C(=O)NO)ccc4C3)cc2)cc1` [Compound 43, N-hydroxy-2-[(4′-methoxybiphenyl-4-yl)sulfonyl]-1,2,3,4-tetrahydroisoquinoline-6-carboxamide]: 50 to 100 nM; for `CC(C)(C)c1ccc(S(=O)(=O)N2CCc3cc(C(=O)NO)ccc3C2)cc1` [Compound 44, 2-[(4-tert-butylphenyl)sulfonyl]-N-hydroxy-1,2,3,4-tetrahydroisoquinoline-6-carboxamide]: 50 to 100 nM; for `Cc1ccc(S(=O)(=O)N2CCc3cc(C(=O)NO)ccc3C2)cc1` [Compound 45, N-hydroxy-2-[(4-methylphenyl)sulfonyl]-1,2,3,4-tetrahydroisoquinoline-6-carboxamide]: 50 to 100 nM.
For `O=C(NO)c1ccc2c(c1)CCN(S(=O)(=O)c1ccc3ccccc3c1)C2` [Compound 47, N-hydroxy-2-(2-naphthylsulfonyl)-1,2,3,4-tetrahydroisoquinoline-6-carboxamide], the IC50 is less than 50 nM.
The same measure for `O=C(NO)c1ccc2c(c1)CCN(S(=O)(=O)c1cccc(-c3ccc(F)cc3)c1)C2` [Compound 48, 2-[(4′-fluorobiphenyl-3-yl)sulfonyl]-N-hydroxy-1,2,3,4-tetrahydroisoquinoline-6-carboxamide]: 50 to 100 nM; for `COc1ccc(S(=O)(=O)N2CCc3cc(C(=O)NO)ccc3C2)cc1` [Compound 49, N-hydroxy-2-[(4-methoxyphenyl)sulfonyl]-1,2,3,4-tetrahydroisoquinoline-6-carboxamide]: less than 50 nM.
The same measure for `O=C(NO)c1ccc2c(c1)CCN(S(=O)(=O)c1ccc(F)cc1)C2` [Compound 50, 2-[(4-fluorophenyl)sulfonyl]-N-hydroxy-1,2,3,4-tetrahydroisoquinoline-6-carboxamide]: 100 to 500 nM; for `Cc1nc(S(=O)(=O)N2CCc3cc(C(=O)NO)ccc3C2)cn1C` [Compound 51, 2-[(1,2-dimethyl-1H-imidazol-4-yl)sulfonyl]-N-hydroxy-1,2,3,4-tetrahydroisoquinoline-6-carboxamide]: 100 to 500 nM.
The same measure for `O=C(NO)c1ccc2c(c1)CCN(S(=O)(=O)c1ccc(C(F)(F)F)cc1)C2` [Compound 52, N-hydroxy-2-{[4-(trifluoromethyl)phenyl]sulfonyl}-1,2,3,4-tetrahydroisoquinoline-6-carboxamide]: 50 to 100 nM.
For the molecule `Cc1noc(C)c1S(=O)(=O)N1CCc2cc(C(=O)NO)ccc2C1` [Compound 53, 2-[(3,5-dimethylisoxazol-4-yl)sulfonyl]-N-hydroxy-1,2,3,4-tetrahydroisoquinoline-6-carboxamide], the 50% inhibitory concentration (IC50) is 100 to 500 nM.
For `Cc1n[nH]c(C)c1S(=O)(=O)N1CCc2cc(C(=O)NO)ccc2C1` [Compound 54, 2-[(3,5-dimethyl-1H-pyrazol-4-yl)sulfonyl]-N-hydroxy-1,2,3,4-tetrahydroisoquinoline-6-carboxamide], the half-maximal inhibitory concentration (IC50) was 50 to 100 nM.
The same measure for `O=C(NO)c1ccc2c(c1)CCN(S(=O)(=O)c1ccc(Oc3ccncc3)cc1)C2` [Compound 55, N-hydroxy-2-{[4-(pyridin-4-yloxy)phenyl]sulfonyl}-1,2,3,4-tetrahydroisoquinoline-6-carboxamide]: 100 to 500 nM; for `O=C(NO)c1ccc2c(c1)CCN(S(=O)(=O)CC(c1ccccc1)c1ccccc1)C2` [Compound 56, 2-[(2,2-diphenylethyl)sulfonyl]-N-hydroxy-1,2,3,4-tetrahydroisoquinoline-6-carboxamide]: 100 to 500 nM; for `O=C(NO)c1ccc2c(c1)CCN(Cc1ccccc1)C2` [Compound 57, 2-benzyl-N-hydroxy-1,2,3,4-tetrahydroisoquinoline-6-carboxamide]: 50 to 100 nM.
The same measure for `O=C(NO)c1ccc2c(c1)CCN(CCc1cccc3ccccc13)C2` [Compound 58, N-hydroxy-2-[2-(1-naphthyl)ethyl]-1,2,3,4-tetrahydroisoquinoline-6-carboxamide]: 50 to 100 nM; for `O=C(NO)c1ccc2c(c1)CCN(Cc1ccc(-n3cncn3)cc1)C2` [Compound 59, N-hydroxy-2-[4-(1H-1,2,4-triazol-1-yl)benzyl]-1,2,3,4-tetrahydroisoquinoline-6-carboxamide]: 100 to 500 nM.
The same measure for `O=C(NO)c1ccc2c(c1)CCN(Cc1ccc3ccccc3n1)C2` [Compound 60, N-hydroxy-2-(quinolin-2-ylmethyl)-1,2,3,4-tetrahydroisoquinoline-6-carboxamide]: 50 to 100 nM.
In the case of `O=C(NO)c1ccc2c(c1)CCN(Cc1ccc(OC(F)(F)F)cc1)C2` [Compound 61, N-hydroxy-2-[4-(trifluoromethoxy)benzyl]-1,2,3,4-tetrahydroisoquinoline-6-carboxamide], the IC50 is 100 to 500 nM.
In the case of `O=C(NO)c1ccc2c(c1)CCN(CCCc1ccccc1)C2` [Compound 62, N-hydroxy-2-(3-phenylpropyl)-1,2,3,4-tetrahydroisoquinoline-6-carboxamide], the half-inhibitory concentration (IC50) lay in the range of 100 to 500 nM.

These data come from patent publication US9096518B2, “Substituted hydroxamic acids and uses thereof” (Millennium Pharmaceuticals, Inc., priority 2009, dated 2015).
